The results in this text go back to patent US12152010B2, “Preparation method for photo-activatable aggregation-induced emission probe with in-situ generation capability” (South China University of Technology, priority 2018, dated 2024).

Each structure is given as a SMILES string.

In series [1] the test system is HeLa cells. As to the kind of experiment: Photo-activatable fluorescence imaging under 405 nm laser in HeLa cells. The format is cell-based. Particulars: in-situ generated compound.
The next series has as its system MCF-7 cells. In words: Photo-activatable fluorescence imaging under 405 nm laser in MCF-7 cells. The series is classed as cell-based. To be noted: in-situ generated compound.
Series [2] has as its system HeLa cells or MCF-7 cells. As to the kind of experiment: Co-dyeing experiments with commercial organelle dyes. The series is classed as cell-based. Particulars: co-dyeing with Nile Red, BODIPY493/503 or LysoTracker Red.
In series [3] the test system is HeLa cells. In words: Photo-controlled high-spatiotemporal-resolution imaging, 780 nm two-photon laser, multicellular environment. The format is cell-based. Particulars: under photo-control. The source says: In-situ generated compound III could be used for photo-controlled high-spatiotemporal-resolution imaging. […] The photo-controlled high-spatiotemporal-resolution imaging capability of in-situ generated compound III was particularly useful for monitoring the movement of organelles and studying the physiological functions of organelles in complex physiological environments.

Series [4] is described as follows: Quantum yield, fluorescence lifetime, absorption and emission in tetrahydrofuran solution and solid (thin film) state. The series is classed as physicochemical. Particulars: for Increase in fluorescence lifetime / Increase in quantum yield: thin film state relative to tetrahydrofuran solution. The text has this: By measuring the quantum yield and fluorescence lifetime of compounds IV-1 (method 2-compound IV-1), IV-2 (method 2-compound IV-2) and IV-3 (method 2-compound IV-3) in tetrahydrofuran solution and solid state (thin film state)) (Table 1), the following results were found relative to the cases in the tetrahydrofuran solution: compound IV-1 in the thin film state increased by 94.4 times in the quantum yield, and increased by 6.0 times in the fluorescence lifetime; compound IV-2 in the thin film state increased by 33.4 times in the quantum yield, and increased by 5.2 times in the fluorescence lifetime; compound IV-3 in the thin film state increased by 25.8 times in the quantum yield, and increased by 4.1 times in the fluorescence lifetime; therefore, the aggregation-induced emission property of compound IV was confirmed. […] The in-situ compounds IV-1 to IV-3 also had the photophysical properties in Table 1.

The nature of series [5]: Fluorescence emission in tetrahydrofuran/water or tetrahydrofuran/toluene mixed solutions (aggregation-induced emission). The series is classed as physicochemical. To be noted: tetrahydrofuran:water (IV-1 509 nm, IV-2 570 nm) or tetrahydrofuran:toluene (IV-3 532 nm), 10^−5 mol/L. The text has this: Mixing tetrahydrofuran and water according to different volume ratios (tetrahydrofuran:water=100:0, 90:10, 80:20, 70:30, 60:40, 50:50, 40:60, 30:70, 20:80, 10:90, 8:92, 6:94, 4:96, 2:98, 1:99) to form mixed solutions with different water contents; dissolving compound IV-1 (i.e., method 2-compound IV-1) into these mixed solutions to make the concentration of the compound at […], and then detecting the fluorescence emission spectrum, with the results as shown in FIG. 1.
Mixing tetrahydrofuran and water according to different volume ratios (tetrahydrofuran:water=100:0, 90:10, 80:20, 70:30, 60:40, 50:50, 40:60, 30:70, 20:80, 10:90, 8:92, 6:94, 4:96, 2:98, 1:99) to form mixed solutions with different water contents; dissolving compound IV-2 (i.e., method 2-compound IV-2) into these mixed solutions to make the concentration of the compound at […], and then detecting the fluorescence emission spectrum, with the results as shown in FIG. 2.
The in-situ generated compound IV-2 (in-situ compound IV-2) had the same photophysical properties as method 2-compound IV-2.
Mixing tetrahydrofuran and toluene according to different volume ratios (tetrahydrofuran:toluene=100:0, 90:10, 80:20, 70:30, 60:40, 50:50, 40:60, 30:70, 20:80, 10:90, 5:95, 1:99) to form mixed solutions with different toluene contents; dissolving compound IV-3 (i.e., method 2-compound IV-3) into these mixed solutions to make the concentration of the compound at […], and then detecting the fluorescence emission spectrum, with the results as shown in FIG. 3.
The in-situ generated compound IV-3 (in-situ compound IV-3) had the same photophysical properties as method 2-compound IV-3.

[6] abbreviates: tetrahydrofuran solution state (10^−5 mol/L).

As for `Oc1ccccc1C1Nc2ccccc2S1` (centres unmarked) [Compound III-1, 2-(2,3-dihydrobenzo[d]thiazol-2-yl)phenol], the Fluorescence intensity increase entry with HeLa cells [1] (irradiation time 10 min) is reported as “approximately 5.5 times of the initial value”; in the series on MCF-7 cells (irradiation time 10 min), ~9.0 times of the initial value. For the same compound, the “Organelle specificity of photo-activatable fluorescence imaging” value (shortened to “Organelle specificity”) in series [2] is listed as “lipid droplet specific photo-activatable fluorescence imaging”.
With `COc1ccc(O)c(C2Nc3ccccc3S2)c1` (centres unmarked) [Compound III-2, 2-(2,3-dihydrobenzo[d]thiazol-2-yl)-4-methoxyphenol], the Fluorescence intensity increase result in the series with HeLa cells [1] (irradiation time 10 min) is listed as “approximately 53 times of the initial value”; in the series on MCF-7 cells (irradiation time 10 min), ~18 times of the initial value. The “Organelle specificity” value in series [2] is recorded as “lipid droplet specific photo-activatable fluorescence imaging”. Further, the “Photo-controlled sequential activation of organelles in different cells” value in the series with HeLa cells [3] is reported as “could sequentially activate lipid droplets in different cells”.
Consider `Oc1ccc(CN2CCOCC2)cc1C1Nc2ccccc2S1` (centres unmarked) [Compound III-3, 2-(2,3-dihydrobenzo[d]thiazol-2-yl)-4-(morpholinomethyl)phenol], for which the Fluorescence intensity increase entry in the series with HeLa cells [1] (scanning time 50 s) was “approximately 6.2 times of the initial value”; in the series with MCF-7 cells (scanning time 50 s), ~4.5 times of the initial value. Further, the “Organelle specificity” value in series [2] is on record as “lysosomal specific photo-activatable fluorescence imaging”. Moreover, the “Photo-controlled sequential activation of organelles in different cells” value with HeLa cells [3] was “could sequentially activate lysosomes in different cells”.
On to `Oc1ccccc1-c1nc2ccccc2s1` [Compound IV-1, 2-(benzo[d]thiazol-2-yl)phenol], for which, in series [4] (solid state), the Emission wavelength stood at 509 nm, the Fluorescence lifetime came to 4.96 ns and the Quantum yield was found to be 66.1%. For the same compound, in series [4] (setting [6]), the Absorption wavelength stood at 334 nm, the Emission wavelength stood at 452 nm, the Fluorescence lifetime is listed as 0.83 ns and the Quantum yield is 0.7%. In addition, in series [4], the “Increase in fluorescence lifetime” value amounted to 6.0 times and the “Increase in quantum yield” value came to 94.4 times. In series [5], the “Ketoluminescence behaviour with increasing poor-solvent content” value was “showing the aggregation-induced emission property”.
In series [4] (solid state), `COc1ccc(O)c(-c2nc3ccccc3s2)c1` [Compound IV-2, 2-(benzo[d]thiazol-2-yl)-4-methoxyphenol] had an Emission wavelength of 570 nm, a Fluorescence lifetime of 4.88 ns and a Quantum yield of 40.1%. Also, in series [4] (setting [6]), the Absorption wavelength is listed as 362 nm, the Emission wavelength was determined as 402 nm, the Fluorescence lifetime is given as 0.94 ns and the Quantum yield came to 1.2%. In series [4], the “Increase in fluorescence lifetime” value turned out to be 5.2 times and the “Increase in quantum yield” value stood at 33.4 times. For the same compound, the “Ketoluminescence behaviour with increasing poor-solvent content” value in series [5] was “showing the aggregation-induced emission property”.
For `Oc1ccc(CN2CCOCC2)cc1-c1nc2ccccc2s1` [Compound IV-3, 2-(benzo[d]thiazol-2-yl)-4-(morpholinomethyl)phenol], in series [4] (solid state), the Emission wavelength is listed as 532 nm, the Fluorescence lifetime was found to be 6.39 ns and the Quantum yield is listed as 28.4%. In series [4] (setting [6]), the Absorption wavelength is 341 nm, the Emission wavelength is reported as 445 nm, the Fluorescence lifetime is reported as 1.56 ns and the Quantum yield was 1.1%. In series [4], the “Increase in fluorescence lifetime” value is recorded as 4.1 times and the “Increase in quantum yield” value is 25.8 times. The “Ketoluminescence behaviour with increasing poor-solvent content” value in series [5] is on record as “showing the aggregation-induced emission property”.
